Legend:
PDE4 = test: Inhibition of PDE4 activity, two-step procedure and Lineweaver-Burk analysis; type: biochemical, guinea pig
Protocol: (§1) Activities of PDE1~5 in the homogenate of guinea pig lungs or hearts were measured by a two-step procedure according to the previous method, using cAMP with [^3H]-cAMP or cGMP with [^3H]-cGMP as substrates. […] The reagents and homogenate were mixed on ice, and the reaction was initiated by transferring the mixture to a water bath at 37°C. Following a 30-min incubation, the reaction was stopped by transferring the reaction vessel to a bath of boiling water for 3 min. After cooling on ice, 20 μl of a 1 mg/ml solution of Crotalus atrox snake venom was added to the reaction mixture, and the mixture was incubated at 37°C for 10 min. Unreacted [^3H]-cAMP or [^3H]-cGMP was removed by the addition of 500 μl of a 1-in-1 Tris-HCl (40 mM) buffer suspension of Dowex resin (1 × 8-200) with incubation on ice for 30 min. Each tube was then centrifuged at 3700 g for 2 min, and 150 μl of the supernatant was removed for liquid scintillation counting. […] The total protein in each fraction used was assayed according to a previous method. PDE activities are reported as nmol/mg/min.

PDE5 = test: Inhibition of PDE5 activity, two-step procedure; type: biochemical; conditions: homogenate of guinea pig lungs or hearts
Protocol: as §1

[1] = test system: total IgG2a, total and OVA-specific IgE; test: IgE and IgG2a levels in serum and BALF of sensitized and challenged mice (ELISA); type: in vivo, BABL/c mice; conditions: 3~30 μmol/kg p.o.
Protocol: According to the schedule (Figure 1), ten female BABL/c mice in each group were sensitized by an intraperitoneal (i.p.) injection of 20 μg of OVA emulsified in 2.25 mg of an aluminum hydroxide gel, prepared from aluminum sulfate hexadecahydrate, in a total volume of 100 μl on days 0 and 14. On day 21, these mice were injected with (i.p.) 100 μl of a mixture of 1% OVA and Freund's complete adjuvant (1:1). Mice were challenged via the airway using 1% OVA in saline for 30 min on days 28, 29, and 30 by ultrasonic nebulization. After the last of OVA challenges, AHR was assessed on day 32 (48 h after 1% OVA provocation) in each group. Each group of mice was orally (p.o.) administered the vehicle (control) or 3~30 μmol/kg of HDME 2 h before and 6 and 24 h after OVA provocation. For comparison, sham-treated mice were challenged with saline instead of 1% OVA (non-challenged). […] AHR was assessed using two methods: (1) in anesthetized ventilated mice, AHR was assessed as previously described by measuring changes in the airway resistance (RL, cmH2O/ml/sec) and lung dynamic compliance (Cdyn, ml/cmH2O) after challenge with aerosolized methacholine (MCh, 0.78~25 mg/ml) using the FlexiVent system (SCIREQ, Montreal, Quebec, Canada). Anesthetized (urethane 600 mg/kg and chloralose 120 mg/kg, i.p.), tracheostomized (stainless-steel cannula, 18 G) mice were mechanically ventilated (at 150 breaths/min, with a tidal volume of 10 ml/kg, positive end-expiratory pressure of 3 cmH2O). (2) in unrestrained animals by barometric plethysmography using a whole-body plethysmograph (WBP) and analyzed using software of Life Science Suite P3 Analysis Modules (Gould, LDS Test and Measurement LLC, Valley View, OH, USA). Mice were placed into the main chamber of the WBP, and the baseline enhanced pause (Penh) value was determined. Then mice were first nebulized with phosphate-buffered saline (PBS), and subsequently with increasing doses (6.25~50 mg/ml) of MCh for 3 min for each nebulization, followed by readings of breathing parameters for 3 min after each nebulization to determine Penh values.
Twenty-four hours after Penh determination, these mice were anesthetized with pentobarbital (50 mg/kg, i.p.), and the lungs were lavaged via a tracheal tube with PBS (1 × 1.0 ml, 37°C). After lavage, blood was collected from the jugular vein and allowed to sit so that it would coagulate. The collected bronchoalveolar lavage fluid (BALF) and coagulated blood were respectively centrifuged at 630 g for 7 min and at 3700 g for 10 min at 4°C. After centrifugation, the BALF and serum supernatants were stored at -20°C until determination of cytokines, including interleukin (IL)-2, IL-4, IL-5, tumor necrosis factor (TNF)-α, and interferon (IFN)-γ by flow cytometric methods using mouse T helper (Th)1/Th2 cytokine CBA kits, and of total immunoglobulin (Ig)E or IgG2a using ELISA kits (Pharmingen, San Diego, CA, USA) according to the respective recommendations of the manufacturers. OVA-specific IgE was measured as described previously. Wells were coated with 100 μl of OVA (20 μg/ml) instead of the capture antibody. Levels are expressed in arbitrary units, where 1 arbitrary unit equals the optical density of the sample divided by the optical density of unchallenged mouse serum or BALF (standard). […] The number of inflammatory cells was counted using a hemocytometer (Hausser Scientific, Horsham, PA, USA). […]

## COc1cc(O)c2c(c1)O[C@H](c1ccc(OC)c(OC)c1)CC2=O [HDME, hesperetin-7,3'-O-dimethylether]
PDE4; Lineweaver-Burk analysis, inhibitor 1~10 μM
  mode of PDE4 inhibition: competitively inhibited
PDE4; Lineweaver-Burk analysis, inhibitor 1~10 μM, substrate cAMP, read-out: dissociation constant for inhibitory binding (Ki), PDE4
  Ki: 2100 ± 1300 nM
PDE4; homogenate of guinea pig lungs or hearts
  IC50: 3000 ± 900 nM
PDE5
  IC50: > 100000 nM
[1]
  effect on OVA-specific IgE level in the BALF: dose-dependently and significantly suppressed
  effect on OVA-specific IgE level in the serum: dose-dependently and significantly suppressed
  effect on total IgE level in the BALF: dose-dependently and significantly suppressed
  effect on total IgE level in the serum: dose-dependently and significantly suppressed
  effect on total IgG2a level in the serum: dose-dependently and significantly enhanced

From publication PMC3225327 (Journal of Biomedical Science, 2011)
